{"source": "patent US9932637B2", "about": "“Genetic polymorphisms associated with cardiovascular disorders and drug response, methods of detection and uses thereof” (CELERA CORPORATION, priority 2003, dated 2018)", "system": "patients with prior myocardial infarction (CARE study)", "experiment": "CARE: association of SNPs with pravastatin treatment in cardiovascular events prevention (logistic regression, odds ratio pravastatin vs placebo by genotype; Table 8)", "assay_type": "in vivo, human", "settings": "for Fatal CHD/Definite Nonfatal MI, n/total (%) / Fatal/Nonfatal MI (def & prob), n/total (%) / MI (Fatal/Nonfatal), n/total (%) / Nonfatal MI (Probable/Definite), n/total (%) / Nonfatal MI (def & prob), n/total (%): GAPD hCV8921288, All Patients", "from_the_text": "In order to identify genetic markers associated with acute coronary events (e.g. MI, stroke, unstable angina, congestive heart failure, etc.) or response to statin treatment for the prevention of coronary events, samples from the Cholesterol and Recurrent Events (CARE) study (a randomized multicentral double-blinded trial on secondary prevention of acute coronary events with pravastatin) (Sacks et al., 1991, Am. J. Cardiol. 68: 1436-1446) were genotyped. A well-documented myocardial infarction (MI) was one of the enrollment criteria for entry into the CARE study. Patients were enrolled in the CARE trial from 80 participating study centers. […] Patients were randomized to receive either 40 mg of pravastatin once daily or a matching placebo. The primary endpoint of the trial was death from coronary heart disease and the median duration of follow-up was 5.0 years (range, 4.0 to 6.2 years). […] Secondary endpoints of other related cardiovascular or metabolic disease events, and changes in clinical variables were also recorded in pravastatin-treated and placebo groups. All individuals included in the study had signed a written informed consent form and the study protocol was approved by the respective Institutional Review Boards (IRBs).\nFor genotyping SNPs in CARE patient samples, DNA was extracted from blood samples using conventional DNA extraction methods such as the QIA-amp kit from Qiagen. Genotypes were obtained on an ABI PRISM® 7900HT Sequence Detection PCR system (Applied Biosystems, Foster City, Calif.) by kinetic allele-specific PCR, similar to the method described by Germer et al. (Germer S., Holland M. J., Higuchi R. 2000, Genome Res. 10: 258-266).\nStatistical analysis for association of SNPs with pravastatin treatment in cardiovascular events prevention (Table 8) was carried out using an overall logistic regression model that included an intercept, a parameter for the effect of a genotype containing two rare alleles versus a genotype containing no rare alleles, a parameter for the effect of a genotype containing one rare allele versus a genotype containing no rare alleles, a parameter for the effect of use of pravastatin versus the use of placebo, and parameters for the interaction effects between SNP genotypes and pravastatin use. The test of the overall model is a chi-square test with two degrees of freedom for analyses containing all three genotypes, and one degree of freedom for analyses containing two genotypes.\nEffect sizes were estimated through odds ratios (pravastatin group versus placebo) for carriers of each genotype (groups of 0, 1, and 2 minor allele carriers). The effect was considered to be significant if p-value for testing whether any of the interactions between SNP genotypes and pravastatin use were <0.05. […] Odds ratios less than one indicate that the specific SNP allele has a protective effect and odds ratios greater than one indicate that the specific SNP allele has an adverse effect.", "key": {"[1]": {"settings": "ELN hCV1253630, All Patients, Fatal CHD/Definite Non-fatal MI"}, "[2]": {"settings": "ELN hCV1253630, All Patients, Fatal/Non-fatal MI (def & prob)"}, "[3]": {"settings": "ELN hCV1253630, All Patients, Hosp. for Cardiovascular Disease"}, "[4]": {"settings": "ELN hCV1253630, All Patients, Non-fatal MI (def & prob)"}, "[5]": {"settings": "ELN hCV1253630, All Patients, Total Cardiovascular Disease Events"}, "[6]": {"settings": "ELN hCV1253630, All Patients, Total Coronary Heart Disease Events"}, "[7]": {"settings": "FCGR2A hCV9077561, All Patients, 0 Rare Alleles, Prava arm"}, "[8]": {"settings": "FCGR2A hCV9077561, All Patients, 1 Rare Allele, Prava arm"}, "[9]": {"settings": "FCGR2A hCV9077561, All Patients, 2 Rare Alleles, Prava arm"}, "[10]": {"settings": "HLA-DPA1 hCV15760070, All Patients, Coronary Artery Bypass or Revascularization"}, "[11]": {"settings": "HLA-DPA1 hCV15760070, All Patients, Total Coronary Heart Disease Events"}}}
{"smiles": "CC[C@H](C)C(=O)O[C@H]1C[C@H](O)C=C2C=C[C@H](C)[C@H](CC[C@@H](O)C[C@@H](O)CC(=O)O)[C@H]21", "note": "[pravastatin]", "values": [{"measurement": "Fatal CHD/Definite Non-fatal MI, n/total (%)", "setting": "ELN hCV1253630, All Patients, 2 Rare Alleles, Prava, n/total 29/245", "result": "(11.8%)"}, {"measurement": "Non-fatal MI (def & prob), n/total (%)", "setting": "ELN hCV1253630, All Patients, 2 Rare Alleles, Prava, n/total 30/245", "result": "(12.2%)"}, {"measurement": "Fatal/Non-fatal MI (def & prob), n/total (%)", "setting": "ELN hCV1253630, All Patients, 2 Rare Alleles, Prava, n/total 33/245", "result": "(13.5%)"}, {"measurement": "Total Coronary Heart Disease Events, n/total (%)", "setting": "ELN hCV1253630, All Patients, 2 Rare Alleles, Prava, n/total 88/245", "result": "(35.9%)"}, {"measurement": "Hosp. for Cardiovascular Disease, n/total (%)", "setting": "ELN hCV1253630, All Patients, 2 Rare Alleles, Prava, n/total 113/245", "result": "(46.1%)"}, {"measurement": "Total Cardiovascular Disease Events, n/total (%)", "setting": "ELN hCV1253630, All Patients, 2 Rare Alleles, Prava, n/total 115/245", "result": "(46.9%)"}, {"measurement": "Prava vs. Placebo Odds Ratio, 0 Rare Alleles", "setting": "[1]", "result": 0.50}, {"measurement": "Prava vs. Placebo Odds Ratio, 1 Rare Alleles", "setting": "[1]", "result": 0.75}, {"measurement": "Prava vs. Placebo Odds Ratio, 2 Rare Alleles", "setting": "[1]", "result": 1.41}, {"measurement": "Prava vs. Placebo Odds Ratio, 0 Rare Alleles", "setting": "[2]", "result": 0.44}, {"measurement": "Prava vs. Placebo Odds Ratio, 1 Rare Alleles", "setting": "[2]", "result": 0.68}, {"measurement": "Prava vs. Placebo Odds Ratio, 2 Rare Alleles", "setting": "[2]", "result": 1.63}, {"measurement": "Prava vs. Placebo Odds Ratio, 0 Rare Alleles", "setting": "[3]", "result": 0.63}, {"measurement": "Prava vs. Placebo Odds Ratio, 1 Rare Alleles", "setting": "[3]", "result": 0.76}, {"measurement": "Prava vs. Placebo Odds Ratio, 2 Rare Alleles", "setting": "[3]", "result": 1.15}, {"measurement": "Prava vs. Placebo Odds Ratio, 0 Rare Alleles", "setting": "[4]", "result": 0.50}, {"measurement": "Prava vs. Placebo Odds Ratio, 1 Rare Alleles", "setting": "[4]", "result": 0.67}, {"measurement": "Prava vs. Placebo Odds Ratio, 2 Rare Alleles", "setting": "[4]", "result": 1.63}, {"measurement": "Prava vs. Placebo Odds Ratio, 0 Rare Alleles", "setting": "[5]", "result": 0.63}, {"measurement": "Prava vs. Placebo Odds Ratio, 1 Rare Alleles", "setting": "[5]", "result": 0.75}, {"measurement": "Prava vs. Placebo Odds Ratio, 2 Rare Alleles", "setting": "[5]", "result": 1.11}, {"measurement": "Prava vs. Placebo Odds Ratio, 0 Rare Alleles", "setting": "[6]", "result": 0.66}, {"measurement": "Prava vs. Placebo Odds Ratio, 1 Rare Alleles", "setting": "[6]", "result": 0.73}, {"measurement": "Prava vs. Placebo Odds Ratio, 2 Rare Alleles", "setting": "[6]", "result": 1.26}, {"measurement": "Catheterization, n/total (%)", "setting": "[7]", "result": "(11.6%)"}, {"measurement": "Coronary Artery Bypass or Revascularization, n/total (%)", "setting": "[7]", "result": "(16.1%)"}, {"measurement": "Catheterization, n/total (%)", "setting": "[8]", "result": "(11.2%)"}, {"measurement": "Coronary Artery Bypass or Revascularization, n/total (%)", "setting": "[8]", "result": "(14.8%)"}, {"measurement": "Catheterization, n/total (%)", "setting": "[9]", "result": "(6.8%)"}, {"measurement": "Coronary Artery Bypass or Revascularization, n/total (%)", "setting": "[9]", "result": "(11.8%)"}, {"measurement": "Fatal CHD/Definite Nonfatal MI, n/total (%)", "setting": "0 Rare Alleles, Prava arm", "result": "(10.5%)"}, {"measurement": "Fatal/Nonfatal MI (def & prob), n/total (%)", "setting": "0 Rare Alleles, Prava arm", "result": "(10.6%)"}, {"measurement": "MI (Fatal/Nonfatal), n/total (%)", "setting": "0 Rare Alleles, Prava arm", "result": "(10.9%)"}, {"measurement": "Nonfatal MI (Probable/Definite), n/total (%)", "setting": "0 Rare Alleles, Prava arm", "result": "(10.3%)"}, {"measurement": "Nonfatal MI (def & prob), n/total (%)", "setting": "0 Rare Alleles, Prava arm", "result": "(9.9%)"}, {"measurement": "Fatal CHD/Definite Nonfatal MI, n/total (%)", "setting": "1 Rare Allele, Prava arm", "result": "(7.4%)"}, {"measurement": "Fatal/Nonfatal MI (def & prob), n/total (%)", "setting": "1 Rare Allele, Prava arm", "result": "(8.7%)"}, {"measurement": "MI (Fatal/Nonfatal), n/total (%)", "setting": "1 Rare Allele, Prava arm", "result": "(8.7%)"}, {"measurement": "Nonfatal MI (Probable/Definite), n/total (%)", "setting": "1 Rare Allele, Prava arm", "result": "(8.1%)"}, {"measurement": "Nonfatal MI (def & prob), n/total (%)", "setting": "1 Rare Allele, Prava arm", "result": "(7.6%)"}, {"measurement": "Fatal CHD/Definite Nonfatal MI, n/total (%)", "setting": "2 Rare Alleles, Prava arm", "result": "(8.1%)"}, {"measurement": "Fatal/Nonfatal MI (def & prob), n/total (%)", "setting": "2 Rare Alleles, Prava arm", "result": "(6.5%)"}, {"measurement": "MI (Fatal/Nonfatal), n/total (%)", "setting": "2 Rare Alleles, Prava arm", "result": "(6.5%)"}, {"measurement": "Nonfatal MI (Probable/Definite), n/total (%)", "setting": "2 Rare Alleles, Prava arm", "result": "(6.5%)"}, {"measurement": "Nonfatal MI (def & prob), n/total (%)", "setting": "2 Rare Alleles, Prava arm", "result": "(4.8%)"}, {"measurement": "Coronary Artery Bypass or Revascularization, n/total (%)", "setting": "HLA-DPA1 hCV15760070, All Patients, 0 Rare Alleles, Prava, n/total 143/1019", "result": "(14.0%)"}, {"measurement": "Total Coronary Heart Disease Events, n/total (%)", "setting": "HLA-DPA1 hCV15760070, All Patients, 0 Rare Alleles, Prava, n/total 285/1019", "result": "(28.0%)"}, {"measurement": "Coronary Artery Bypass or Revascularization, n/total (%)", "setting": "HLA-DPA1 hCV15760070, All Patients, 1 Rare Allele, Prava, n/total 67/443", "result": "(15.1%)"}, {"measurement": "Total Coronary Heart Disease Events, n/total (%)", "setting": "HLA-DPA1 hCV15760070, All Patients, 1 Rare Allele, Prava, n/total 136/443", "result": "(30.7%)"}, {"measurement": "Coronary Artery Bypass or Revascularization, n/total (%)", "setting": "HLA-DPA1 hCV15760070, All Patients, 2 Rare Alleles, Prava, n/total 9/52", "result": "(17.3%)"}, {"measurement": "Total Coronary Heart Disease Events, n/total (%)", "setting": "HLA-DPA1 hCV15760070, All Patients, 2 Rare Alleles, Prava, n/total 21/52", "result": "(40.4%)"}, {"measurement": "Prava vs. Placebo Odds Ratio, 0 Rare Alleles", "setting": "[10]", "result": 0.65}, {"measurement": "Prava vs. Placebo Odds Ratio, 1 Rare Alleles", "setting": "[10]", "result": 0.71}, {"measurement": "Prava vs. Placebo Odds Ratio, 2 Rare Alleles", "setting": "[10]", "result": 5.65}, {"measurement": "Prava vs. Placebo Odds Ratio, 0 Rare Alleles", "setting": "[11]", "result": 0.69}, {"measurement": "Prava vs. Placebo Odds Ratio, 1 Rare Alleles", "setting": "[11]", "result": 0.86}, {"measurement": "Prava vs. Placebo Odds Ratio, 2 Rare Alleles", "setting": "[11]", "result": 2.48}, {"measurement": "Fatal/Non-fatal MI (def & prob), n/total (%)", "setting": "HLA-DPB1 hCV8851085, All Patients, 0 Rare Alleles, Prava, n/total 82/919", "result": "(8.9%)"}]}
